Experimental data: article PMC12491383, “Organ and tumour dosimetry of ^177Lu-rhPSMA-10.1, a novel PSMA-targeted therapy: results from a Phase I trial” (European Journal of Nuclear Medicine and Molecular Imaging, 2025)
Values joined by “and” are separate entries in the source; they are usually repeats but may differ in a detail not shown here. Equal values may be shown once.

What was measured:
[1] = Venous whole-blood radioactivity measurement (gamma counter): blood clearance and red marrow absorbed dose; type: in vivo, human
Procedure: To assess the biodistribution and kinetics of radioactivity in individual tissues, whole blood and imaging-based radiation dosimetry were performed. Venous blood samples for radioactivity measurement were collected within the 30 min prior to ^177Lu-rhPSMA-10.1 administration, and at approximately 30 min, 1.5-, 4-, 24- and 48-hours post-administration in all treatment cycles. Samples were collected from the contralateral arm to that of the ^177Lu-rhPSMA-10.1 injection. Whole-blood concentrations were measured using a calibrated gamma counter to estimate both red marrow absorbed doses and blood clearance over time. All measurements were decay-corrected to the time of sample collection.
All continuous data are expressed as the mean (standard deviation [SD]) unless otherwise stated. All blood- and image-based pharmacokinetic analyses were conducted in Python and Excel. Effective half-lives for organs and tumours were calculated using a mono-exponential fit to the washout phase of the time–activity data.

[2] = design: method as in PMID 37770108; conditions: within the same patient; compassionate use program in Germany; cited from earlier work

CC(C)(C)[Si](F)(c1ccc(C(=O)NC[C@@H](NC(=O)CN2CCN(CC(=O)[O-])CCN(CC(=O)[O-])CCN(CC(=O)[O-])CC2)C(=O)N[C@H](CCCCNC(=O)CCC(=O)NCCC[C@@H](NC(=O)CC[C@H](NC(=O)N[C@@H](CCC(=O)O)C(=O)O)C(=O)O)C(=O)O)C(=O)O)cc1)C(C)(C)C.[177Lu+3] [^177Lu-rhPSMA-10.1]
Mean (SD) Absorbed Dose, bone marrow (blood-based) ([1]; All Cycles): 0.032 Gy/GBq and 0.032 (0.010) Gy/GBq | Mean (SD) Absorbed Dose, bone marrow (blood-based) ([1]; Cycle 1, 13 patients): 0.031 (0.010) Gy/GBq | Effective half-life in blood ([1]; venous whole blood, based on mean patient levels, mean (SD)): 2.2 h | Radiation dose to the tumour relative to ^177Lu-PSMA-I&T, fold greater [2]: up to 8 fold
